# Where a chain is given by its changes, count along the chain named. Where “and” joins values, the source holds several entries; their conditions need not be identical. Equal entries are not always repeated. Where two headings read alike, the source gives them in different places.
# Assays:
# [1] = Brain penetrance, brain/plasma ratio from AUC0-24; format: in vivo; conditions: male, BALB/c or Balb/cOlaHsd nude, mouse, mice, single oral dose of 10 mg/kg, based on AUC0–24
# [2] = tested on: VCaP cells; assay: VCaP proliferation assay (WST-1); format: cell-based; conditions: Homo sapiens, 96 h
# [3] = Body weight of mice bearing subcutaneous VCaP xenograft tumors; format: in vivo, castrated nude mice; conditions: enzalutamide 20 mg/kg qd oral, individual animals, vs BW before treatment
# Experimental: BALB/c nude male mice (7 weeks old from Charles River, Germany) were subcutaneously injected with 2 million VCaP cells in 100 μL of RPMI-1640 medium and Matrigel (BD) (1:1). Tumor growth was monitored twice weekly by caliper measurements. The volume of the tumor was calculated according to the formula W^2 × L/2 (mm^3), where W is the shorter and L the longer diameter of the tumor. When the average tumor volume reached ~200 mm^3, mice were castrated or SHAM-operated under Avertin anesthesia. […] For all in vivo studies, Macrocol® (Merck) + propylene glycol +5% glucose (50:30:20, v/v/v) was used as a vehicle.
# [4] = Pharmacokinetic parameters in mice after 7 days oral dosing; format: in vivo; conditions: male, BALB/c or Balb/cOlaHsd nude, mouse, plasma, 20 mg/kg qd oral, read-out: AUC24
# Experimental: Control mice received vehicle. […] Brain samples (without olfactory bulbs and medulla oblongata) from each group and time point were pooled and homogenized before the analysis. […] Plasma and brain concentration vs. time were evaluated by noncompartmental analysis using WinNonlin® Professional v. 5.2 software (Pharsight Corporation). Brain/plasma ratios were calculated based on AUC0–24 values for plasma and brain.
# [5] = tested on: subcutaneous VCaP tumors; assay: Castration-resistant VCaP xenograft, tumor volume; format: in vivo, castrated nude mice
# [6] = tested on: serum testosterone; assay: Serum testosterone in intact nude mice bearing orthotopic VCaP tumors; format: in vivo; conditions: 20 mg/kg qd oral, 3 weeks, p < 0.05 vs vehicle
# Experimental: One million VCaP cells in 20 μL of RPMI-1640 medium were orthotopically injected into the dorsal prostate lobes of athymic nude male mice (7 weeks old from Harlan Winkelman, France). Tumor growth was followed by measuring serum PSA (ProStatus™ PSA EQM Kits, Wallac, Finland). […] At autopsy, blood samples were collected by heart puncture, clotted overnight at +4 °C, and centrifuged. For serum testosterone determination, 25-μL aliquots were extracted twice with 2 mL of diethyl ether and evaporated under nitrogen to dryness. The residues were reconstituted in PBS and measured using a standard radioimmunoassay as described previously.
# [7] = target: T1, AR(W741L) (Homo sapiens, UniProt P10275, W742L)
# T1 sequence (P10275 1-920 W742L): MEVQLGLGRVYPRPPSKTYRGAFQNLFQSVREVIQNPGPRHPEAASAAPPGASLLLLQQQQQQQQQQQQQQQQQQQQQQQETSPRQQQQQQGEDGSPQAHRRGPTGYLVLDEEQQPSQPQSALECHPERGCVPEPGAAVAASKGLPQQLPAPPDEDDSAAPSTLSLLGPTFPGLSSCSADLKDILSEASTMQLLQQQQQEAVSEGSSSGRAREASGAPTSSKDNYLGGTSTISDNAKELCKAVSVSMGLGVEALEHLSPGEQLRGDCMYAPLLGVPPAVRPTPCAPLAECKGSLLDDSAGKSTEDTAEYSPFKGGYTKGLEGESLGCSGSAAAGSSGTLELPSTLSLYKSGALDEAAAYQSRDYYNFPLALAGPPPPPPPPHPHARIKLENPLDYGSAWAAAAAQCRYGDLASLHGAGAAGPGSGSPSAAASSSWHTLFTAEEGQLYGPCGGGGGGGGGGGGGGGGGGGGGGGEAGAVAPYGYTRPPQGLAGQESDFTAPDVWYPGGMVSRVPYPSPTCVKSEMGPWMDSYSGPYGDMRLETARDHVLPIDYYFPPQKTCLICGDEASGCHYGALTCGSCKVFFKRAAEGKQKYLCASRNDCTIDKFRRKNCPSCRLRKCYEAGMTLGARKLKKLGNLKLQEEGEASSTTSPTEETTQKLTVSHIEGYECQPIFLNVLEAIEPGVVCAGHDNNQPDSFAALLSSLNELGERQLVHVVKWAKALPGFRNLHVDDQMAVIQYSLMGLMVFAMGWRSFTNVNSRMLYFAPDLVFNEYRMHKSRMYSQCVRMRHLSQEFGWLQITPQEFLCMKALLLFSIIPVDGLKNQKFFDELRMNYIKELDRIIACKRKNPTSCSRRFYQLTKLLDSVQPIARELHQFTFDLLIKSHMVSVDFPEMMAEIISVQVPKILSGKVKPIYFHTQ
# [8] = target: T2, AR(T877A) (Homo sapiens, UniProt P10275, T878A)
# T2 sequence (P10275 1-920 T878A): T1 sequence (P10275 1-920 W742L) with L742W, T878A
# [9] = tested on: AR nuclear translocation in HS-HEK293 cells; conditions: 0.3 or 1.0 μM test compound with 0.3 nM testosterone, HS-HEK293 cells
# [10] = target: T3, AR(F876L) (Homo sapiens, UniProt P10275, F877L)
# T3 sequence (P10275 1-920 F877L): T1 sequence (P10275 1-920 W742L) with L742W, F877L
# [11] = set-up: method as in PMID 15470213; conditions: CRPC ref 7; cited from earlier work
structure (smiles),measurement,setting,value
"CNC(=O)c1ccc(N2C(=S)N(c3cnc(C#N)c(C(F)(F)F)c3)C(=O)C23CCC3)cc1F [ARN-509, reference compound]",Kp,[1],0.62
same,IC50,"[2]; read-out: IC50, androgen-induced VCaP cell proliferation",420 nM
"CNC(=O)c1ccc(N2C(=S)N(c3ccc(C#N)c(C(F)(F)F)c3)C(=O)C2(C)C)cc1F [Enzalutamide, enzalutamide, reference compound]",Change in body weight (%) d 3,[3],0.0% (2×) and -6.2% and -2.7% and -0.6% and -0.5% and -2.0% and 1.3% and 0.5%
same,Change in body weight (%) d 9,[3],0.4% and 1.7% (2×) and 3.6% and 0.6% and 1.3% and 2.9% and 1.5% and 0.5%
same,Change in body weight (%) d 16,[3],1.8% (2×) and 1.2% and 3.0% and 2.6% and 6.8% and 5.6% and 5.5% and 8.7%
same,Change in body weight (%) d 23,[3],1.0% and -4.8% and -1.4% and 1.8% and -2.2% and -0.9% and -2.9% and -3.0%
same,Change in body weight (%) d 30,[3],2.1% and -4.0% and -2.7% and 3.0% and 0.9% and 1.9% and -2.0% and -0.9%
same,Change in body weight (%) d 37,[3],5.1% and -0.9% and 0.5% (2×) and 3.6% and 3.5% and 7.2% and 1.3%
same,AUC,[4],479 µg·h/mL
same,antitumor activity (tumor volume),"[5]; 20 mg/kg oral once daily, 37 days, p < 0.05 vs castrated untreated mice",inhibition of tumor growth
same,effect on serum testosterone levels,[6],increased significantly
CC(=O)c1cc(C(=O)N[C@@H](C)Cn2ccc(-c3ccc(C#N)c(Cl)c3)n2)n[nH]1 [ORM-15341],functional activity (agonist/antagonist) on AR(W741L),[7],full antagonists
same,IC50,"[2]; 0.1 nM mibolerone, steroid-depleted medium, 4 days, WST-1, read-out: IC50, androgen-induced VCaP cell proliferation",170 nM
same,functional activity (agonist/antagonist) on AR(T877A),[8],full antagonists
same,effect on testosterone-induced nuclear translocation of AR,[9],inhibit
same,functional activity (agonist/antagonist) on AR(F876L),[10],full antagonists
"CC(O)(CS(=O)(=O)c1ccc(F)cc1)C(=O)Nc1ccc(C#N)c(C(F)(F)F)c1 (stereo not shown) [bicalutamide, reference compound]",antitumor activity,"[5]; 20 mg/kg per os, data not shown",does not have any antitumor activity
same,effect on testosterone-induced nuclear translocation of AR,[9],failed to block
CC(=O)O[C@@]12CO[C@@H]1C[C@H](O)[C@@]1(C)C(=O)[C@H](O)C3=C(C)[C@@H](OC(=O)[C@H](O)[C@@H](NC(=O)OC(C)(C)C)c4ccccc4)C[C@@](O)([C@@H](OC(=O)c4ccccc4)[C@H]21)C3(C)C [docetaxel],median prolongation of survival,[11],2.9 months

# Source: publication PMC4490394 (Scientific Reports, 2015)
